According to patent US10344048B2, “Certain chemical entities, compositions, and methods” (priority 2011, dated 2019):
Read-outs that look alike come from different tables or passages of the source.

System: A549 cells
Experiment: Inhibition of cell growth in tumor cells, MTT assay
Type: cell-based
Conditions: Homo sapiens, read-out: A549 cell IC50
Experimental: Inhibition of cell growth by compounds was measured using MTT assay (Mosmann, T., Journal of Immunological Methods, 1983, 65, 55-63). Tumor cell lines were purchased from ATCC (American Type Culture Collection, Manassas, Va.). All cell lines were maintained in RPMI 1640 (Hyclone) supplemented with 10% fetal bovine serum (FBS, Hyclone), glutamine (2 mM, Hyclone), and antibiotics (penicillin 100 U/mL and streptomycin 50 μg/mL) at 37° C. in a humidified atmosphere of 5% CO2 in air. Taxol (positive control, Sigma) and compounds were dissolved in DMSO (Sigma), and the final concentration of DMSO in the medium was 1%. Tumor cells were plated in 96-well plates at densities from 4000 cells/well of a 96-well plate and allowed to adhere/grow for 24 h. They were then treated with various concentrations of drug for 72 h. […] The number of cells remaining after 72 h was compared to the number of viable cells at the time of compound addition by measuring the absorbance at 570 nm, allowing for the calculation of growth inhibition.
All concentrations of compounds were tested in triplicate and controls were averaged over 4 wells. IC50 was calculated by plotting the concentration of compound vs the percentage of inhibition in treated wells using GraphPad Prism 5. […]

| SMILES | IC50 (A549, 72 h) [nM] | IC50 (A549 cells, MTT assay, 72 h compound exposure) [nM] |
| --- | --- | --- |
| CC(=O)O[C@H]1C[C@]2(O)[C@@H]3CC[C@@H]4C[C@@H](OC(=O)N5CCNCC5)CC[C@]4(C)[C@H]3CC[C@]2(C)[C@H]1c1ccc(=O)oc1 [(3S,5R,8R,9S,10S,13R,14S,16S,17R)-16-acetoxy-14-hydroxy-10,13-dimethyl-17-(2-oxo-2H-pyran-5-yl)hexadecahydro-1H-cyclopenta[a]phenanthren-3-yl piperazine-1-carboxylate] | 5.6 | – |
| C[C@]12CC[C@H](OC(=O)N3CCNCC3)C[C@H]1CC[C@@H]1[C@@H]2CC[C@]2(C)[C@@H](C3=CC(=O)OC3)CC[C@]12O [(3S,5R,8R,9S,10S,13R,14S,17R)-14-hydroxy-10,13-dimethyl-17-(5-oxo-2,5-dihydrofuran-3-yl)hexadecahydro-1H-cyclopenta[a]phenanthren-3-yl piperazine-1-carboxylate] | – | 39 |
